Laboratory results as given in PubChem BioAssay (NCI).
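Grown in 96-well plates, cells were treated for 48 hours with each compound at five concentrations. Insufficient inhibition: endpoint recorded as highest concentration tested. The concentration for 50% growth inhibition is given as GI50. The concentration for full growth arrest is given as TGI.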

Tests used:
Experiment in all cases: growth of human tumour cells (NCI), 48 h
A549 NSCLC = tested on: A549 NSCLC
EKVX NSCLC = tested on: EKVX NSCLC
HCC-2998 colon = tested on: HCC-2998 colon
KM12 colon = tested on: KM12 colon
MALME-3M melanoma = tested on: MALME-3M melanoma
NCI-H460 lung = tested on: NCI-H460 lung
OVCAR-4 ovarian = tested on: OVCAR-4 ovarian
OVCAR-8 ovarian = tested on: OVCAR-8 ovarian
SF-295 CNS = tested on: SF-295 CNS
SW-620 colon = tested on: SW-620 colon

Row | SMILES | TGI (A549 NSCLC) | TGI (EKVX NSCLC) | TGI (HCC-2998 colon) | TGI (KM12 colon) | TGI (MALME-3M melanoma) | TGI (NCI-H460 lung) | TGI (OVCAR-4 ovarian) | TGI (OVCAR-8 ovarian) | TGI (SF-295 CNS) | TGI (SW-620 colon) | GI50 (A549 NSCLC) | GI50 (EKVX NSCLC) | GI50 (HCC-2998 colon) | GI50 (KM12 colon) | GI50 (MALME-3M melanoma) | GI50 (NCI-H460 lung) | GI50 (OVCAR-4 ovarian) | GI50 (OVCAR-8 ovarian) | GI50 (SF-295 CNS) | GI50 (SW-620 colon)
1 | CS/C(C#N)=C(\C#N)SC | > 100 µM | 62.2 µM | 20.9 µM | 37.7 µM | 30.1 µM | 81.4 µM | 38.2 µM | 6.06 µM | 53.8 µM | > 100 µM |  |  |  |  |  |  |  |  |  | 
2 | Cc1cccc(O)c1-c1nnc(CCCCCCCCc2nnc(-c3c(C)cccc3O)n2N)n1N | > 100 µM | > 100 µM | > 100 µM | > 100 µM | > 100 µM | > 100 µM | > 56.1 µM |  | > 100 µM | > 100 µM |  |  |  |  |  |  |  |  |  | 
3 | c1ccc(CSc2ccccc2CN2CCN(Cc3ccccc3SCc3ccccc3)CCN(Cc3ccccc3SCc3ccccc3)CC2)cc1 | 10.1 µM | 3.39 µM | 2.39 µM | 5.26 µM | 3.56 µM | 2.87 µM | 3.38 µM | 2.67 µM | 2.45 µM | 69.2 µM |  |  |  |  |  |  |  |  |  | 
4 | CCN1CCN(c2nc3ccccc3nc2C(=O)c2ccc(OC)cc2)CC1 | > 100 µM | > 100 µM | > 100 µM | > 100 µM | 62.2 µM | > 100 µM | > 100 µM | > 100 µM | > 100 µM | > 100 µM |  |  |  |  |  |  |  |  |  | 
5 | c1ccc(CSC2(SCc3ccccc3)CCCC2)cc1 | > 10 µM | > 10 µM | > 10 µM | > 10 µM | > 10 µM | > 10 µM | > 10 µM | > 10 µM | > 10 µM | > 10 µM |  |  |  |  |  |  |  |  |  | 
6 | C[C@H]1C(=O)O[C@@H]1[C@H]1COC(C)(C)O1 | > 100 µM | > 100 µM | > 100 µM | > 100 µM |  | > 100 µM | > 100 µM | > 100 µM | > 100 µM | > 100 µM |  |  |  |  |  |  |  |  |  | 
7 | COC(=O)C(=O)C(C(=O)C1=NS(=O)(=O)c2cc(S(N)(=O)=O)c(Cl)cc2N1)c1nc2ccc(C(=O)c3ccccc3)cc2[nH]c1=O (stereo not given) | > 100 µM | > 100 µM | > 100 µM | > 100 µM | > 100 µM | > 100 µM | > 100 µM | > 100 µM | > 100 µM | > 100 µM |  |  |  |  |  |  |  |  |  | 
8 | [O-]c1c[n+](CCCC[n+]2cc([O-])on2)no1 | > 100 µM | > 100 µM | > 100 µM | > 100 µM | > 100 µM | > 100 µM | > 100 µM | > 100 µM | > 100 µM | > 100 µM |  |  |  |  |  |  |  |  |  | 
9 | Nc1ccc(Oc2ccc(C3(c4ccc(Oc5ccc(N)cc5)cc4)C4CC5C6CC7CC5C3C(C7)C6C4)cc2)cc1 | > 100 µM | > 100 µM | > 77.9 µM | > 87.8 µM | > 100 µM | > 100 µM | > 100 µM | > 100 µM | > 100 µM | > 100 µM |  |  |  |  |  |  |  |  |  | 
10 | Nc1nc(Cl)cc(NCCCNc2cc(Cl)nc(N)n2)n1 | > 100 µM | > 100 µM | > 100 µM | > 100 µM | > 100 µM | > 100 µM | > 100 µM | > 100 µM | > 100 µM | > 100 µM |  |  |  |  |  |  |  |  |  | 
11 | CN(C)CCCNC(=O)c1cc(NC(=O)c2cc(NS(=O)(=O)c3ccc4c(c3)C(=O)c3ccccc3C4=O)cn2C)cn1C | > 100 µM | > 100 µM | > 100 µM | > 100 µM | 79.4 µM | > 100 µM | > 100 µM | > 100 µM | > 100 µM | > 100 µM |  |  |  |  |  |  |  |  |  | 
12 | Cc1ccc(-c2cc(-c3ccc(Cl)cc3)nc(/N=C3\C(=O)N(CN4CCOCC4)c4ccccc43)n2)cc1 | 39.7 µM | > 100 µM | 34 µM | 58.5 µM | 69.4 µM | 50.8 µM | > 100 µM | 50.8 µM | > 100 µM | 62.8 µM |  |  |  |  |  |  |  |  |  | 
13 | O=c1oc2ccccc2n1P(=O)(n1c(=O)oc2ccccc21)n1c(=O)oc2ccccc21 | > 100 µM | > 100 µM | > 100 µM | > 100 µM | > 100 µM | > 100 µM | > 100 µM |  | > 100 µM | > 100 µM |  |  |  |  |  |  |  |  |  | 
14 | Cn1cc(-c2csc(-c3cn(C)c4ccc(Br)cc34)n2)c2cnccc21 | 3.48 µM | 3.48 µM | 3.57 µM | 3.69 µM | 3.48 µM | 3.47 µM | 3.15 µM | 3.61 µM | 3.4 µM | 3.48 µM | 1.83 µM | 1.86 µM | 1.9 µM | 1.97 µM | 1.95 µM | 1.87 µM | 1.68 µM | 1.9 µM | 1.81 µM | 1.85 µM
15 | CN1C(=O)CN2C(Cl)(Cl)C2(c2ccccc2F)c2cc([N+](=O)[O-])ccc21 (stereo not given) |  | > 100 µM | 86 µM | > 100 µM | 95.8 µM | > 100 µM | > 100 µM | > 100 µM | > 100 µM | > 100 µM |  |  |  |  |  |  |  |  |  | 
16 | CC1=C(C#N)C23C(=O)c4ccccc4C(O)=C2C(=O)C=CC3(O)N1 (stereo not given) | > 100 µM | > 100 µM | 23 µM | 38.6 µM | 3.86 µM | 31.1 µM | 4.16 µM | > 100 µM | 66.9 µM | 12.6 µM |  |  |  |  |  |  |  |  |  | 
17 | Cc1ccccc1[P+](C)(c1ccccc1C)c1ccccc1C | 55.4 µM | 35 µM | 12.6 µM |  | 22.9 µM | > 100 µM | 18.1 µM | 45.4 µM |  | 39.1 µM |  |  |  |  |  |  |  |  |  | 
18 | CC(N)C(=O)OCN1C(=O)C2C3C=CC(C2C1=O)C1C2C(=O)N(COC(=O)C(C)N)C(=O)C2C31 (stereo not given) | 77.7 µM | > 100 µM | 97.9 µM | 41.6 µM |  | 34.3 µM | 40.9 µM | 47.8 µM | > 100 µM | 47.4 µM |  |  |  |  |  |  |  |  |  | 
19 | CNC1C(O)C(NC)C2OC3(O)C(=O)CC(C)OC3OC2C1O (stereo not given) | > 100 µM | > 100 µM | > 100 µM | > 100 µM |  | > 100 µM | > 100 µM | > 100 µM | > 100 µM | > 100 µM |  |  |  |  |  |  |  |  |  | 
20 | Oc1cccc(-c2ccc3c4c2O[C@H]2c5[nH]c6ccccc6c5C[C@@]5(O)[C@@H](C3)N(CC3CC3)CC[C@]425)c1 | 3.22 µM | 29.7 µM |  | 3.5 µM | 3.38 µM |  | 2.96 µM | 3.23 µM | 3.21 µM | 6.15 µM |  |  |  |  |  |  |  |  |  | 
21 | CCN1C(=S)n2cccc2C1CC(=O)c1ccc(Cl)cc1 (stereo not given) | > 100 µM | > 100 µM | > 100 µM | > 100 µM | > 100 µM | > 100 µM | > 100 µM | > 100 µM | > 100 µM | > 100 µM |  |  |  |  |  |  |  |  |  | 
22 | O=Nc1c(-c2c(O)[nH]c3ccccc23)[nH]c2ccccc12 | > 55.1 µM | 9.12 µM | 16.3 µM | > 38.7 µM | 27.8 µM | 28.7 µM | 34.1 µM | > 45.5 µM | 99.2 µM | > 100 µM |  |  |  |  |  |  |  |  |  | 
23 | C=C1C(=O)OC2/C=C(\C)C3OC3/C=C(/C(=O)OC)C(O)C(OC(=O)C3(C)OC3C)C12 (stereo not given) | 32 µM | 7.44 µM | 4.66 µM | 11.2 µM | 3.21 µM | 17.8 µM | 8.77 µM | 5.85 µM | 27 µM | 3.1 µM |  |  |  |  |  |  |  |  |  | 
24 | CN(C)CC1CCCC(CN2CCCCC2)C1=O (stereo not given) | > 76.4 µM | 28.7 µM | 33.4 µM | 44.9 µM | 6.5 µM | > 68.6 µM | 7.75 µM | 31.5 µM | > 100 µM | 3.74 µM |  |  |  |  |  |  |  |  |  | 
25 | C=CCc1c(C)nc(C)nc1N/N=C/C=C/c1ccccc1 | > 100 µM | 69.2 µM |  |  | > 100 µM | 57.5 µM | 0.18 µM | 97.7 µM | 52.9 µM | > 100 µM |  |  |  |  |  |  |  |  |  | 
26 | CC(C)OC(=O)Nc1cccc(Cl)c1 | > 100 µM | > 100 µM | > 100 µM | > 100 µM |  | > 100 µM | > 100 µM | > 100 µM | > 100 µM | > 100 µM |  |  |  |  |  |  |  |  |  | 
27 | CC(=O)OCc1ccc2oc(=O)c(C(=O)Oc3cccc(Cl)c3)cc2c1 | > 100 µM | > 100 µM | 39.3 µM | > 100 µM | > 100 µM | > 100 µM | > 100 µM | > 100 µM | > 100 µM | > 100 µM |  |  |  |  |  |  |  |  |  | 
28 | Cc1nc2c(O)cc3c4c(=O)n(C)c(=O)n(C)c4n(Cc4ccccc4)c3c2nc1C | 36.2 µM | 50.2 µM | 40.3 µM | 54 µM | 38.8 µM | > 100 µM | 23.7 µM | 33.1 µM | > 100 µM | 44.2 µM |  |  |  |  |  |  |  |  |  | 
29 | NC(=O)c1ccc(NS(=O)(=O)c2ccc(N)cc2)nc1 |  | > 100 µM | > 100 µM | > 100 µM | > 100 µM | > 100 µM | > 100 µM | > 100 µM | > 100 µM | > 100 µM |  |  |  |  |  |  |  |  |  | 
30 | CCCCC(C(=O)N/N=C/c1ccc([N+](=O)[O-])o1)C(=O)N/N=C/c1ccc([N+](=O)[O-])o1 | 41.4 µM | 26.6 µM |  | 15.4 µM | 7.93 µM | 35.6 µM | 3.4 µM | 5.89 µM | 31.4 µM | 6.71 µM |  |  |  |  |  |  |  |  |  | 
